{"source": "patent US20240408215A1", "about": "“USE OF DIAZIRINE LINKER FOR DRUG CONJUGATES” (HELMHOLTZ ZENTRUM MUNCHEN - DEUTSCHES FORSCHUNGSZENTRUM FUR …, priority 2021, published 2024)", "test": "Pulsed UV light release of 7-hydroxycoumarin in homogenous media, with dark intervals", "type": "physicochemical", "details": "FIG. 7", "data": [{"compound": "[N-]=[N+]=NCCCCCC(=O)OCC1(COc2ccc3ccc(=O)oc3c2)N=N1", "note": "[(3-(((2-oxo-2H-chromen-7-yl)oxy)methyl)-3H-diazirin-3-yl)methyl-6-azidohexanoate]", "values": [{"measurement": "release of 7-hydroxycoumarin in the dark after the light pulse", "setting": "1-2 minutes in the dark after each pulse", "value": "no additional leaking of payload occurs after ending the pulse"}, {"measurement": "release of 7-hydroxycoumarin upon UV light irradiation", "setting": "water/EtOH/DMSO (1.0:1.0:0.1), UV light pulses, not attached to agarose", "value": "efficient release"}]}]}
